Source: ChEMBL document CHEMBL4837189, “Opportunities and Limitations for Assigning Relative Configurations of Antibacterial Bislactones using GIAO NMR Shift Calculations” (J Nat Prod, 2021)
Values after ≈ are worked out from the molar mass of the structure shown.

How the values were obtained:
Bacillus anthracis = assay: Antimicrobial activity against Bacillus anthracis assessed as microbial growth inhibition by CLSI-protocol based broth microdilution assay; format: functional
Staphylococcus aureus [1] = assay: Antimicrobial activity against Staphylococcus aureus assessed as microbial growth inhibition by CLSI-protocol based broth microdilution assay; format: functional
Escherichia coli = assay: Antimicrobial activity against Escherichia coli assessed as microbial growth inhibition by CLSI-protocol based broth microdilution assay; format: functional
Pseudomonas aeruginosa = assay: Antimicrobial activity against Pseudomonas aeruginosa assessed as microbial growth inhibition by CLSI-protocol based broth microdilution assay; format: functional
Staphylococcus aureus [2] = assay: Antimicrobial activity against methicillin-resistant Staphylococcus aureus assessed as microbial growth inhibition by CLSI-protocol based broth microdilution assay; format: functional
OVCAR-3 = assay: Cytotoxicty against human OVCAR-3 cells assessed as reduction in cell viability at > 25 uM measured after 72 hrs by CellTiter-Blue cell viability assay; format: cell-based; conditions: ovcar-3, 72 h
MDA-MB-435 = assay: Cytotoxicty against human MDA-MB-435 cells assessed as reduction in cell viability at > 25 uM measured after 72 hrs by CellTiter-Blue cell viability assay; format: cell-based; conditions: mda-mb-435, 72 h
MDA-MB-231 = assay: Cytotoxicty against human MDA-MB-231 cells assessed as reduction in cell viability at > 25 uM measured after 72 hrs by CellTiter-Blue cell viability assay; format: cell-based; conditions: mda-mb-231, 72 h

Row | Compound | MIC (Bacillus anthracis) [µg/mL] | MIC (Staphylococcus aureus [1]) [µg/mL] | MIC (Escherichia coli) [µg/mL] | MIC (Pseudomonas aeruginosa) [µg/mL] | MIC (Staphylococcus aureus [2]) [µg/mL] | Activity (OVCAR-3) | Activity (MDA-MB-435) | Activity (MDA-MB-231)
1 | CN[C@@H]1[C@H](O[C@H]2[C@H](O[C@H]3[C@H](O)[C@@H](O)[C@H](N=C(N)N)[C@@H](O)[C@@H]3N=C(N)N)O[C@@H](C)[C@]2(O)C=O)O[C@@H](CO)[C@H](O)[C@H]1O [STREPTOMYCIN] | 0.25 (≈ 0.43 µM) | 0.25 (≈ 0.43 µM) | 0.25 (≈ 0.43 µM) | 1 (≈ 1.72 µM) | 0.25 (≈ 0.43 µM) |  |  | 
2 | CC[C@H]1OC(=O)[C@H](C)[C@@H](O[C@H]2C[C@@](C)(OC)[C@@H](O)[C@H](C)O2)[C@H](C)[C@@H](O[C@@H]2O[C@H](C)C[C@H](N(C)C)[C@H]2O)[C@](C)(O)C[C@@H](C)C(=O)[C@H](C)[C@@H](O)[C@]1(C)O [ERYTHROMYCIN] | 0.25 (≈ 0.341 µM) | 0.5 (≈ 0.681 µM) | 16 (≈ 21.8 µM) | 62.5 (≈ 85.2 µM) | 0.25 (≈ 0.341 µM) |  |  | 
3 | CC[C@H]1OC(=O)[C@H](C)[C@@H](O[C@H]2C[C@@](C)(OC)[C@@H](O)[C@H](C)O2)[C@H](C)[C@@H](O[C@@H]2O[C@H](C)C[C@H](N(C)C)[C@H]2O)[C@](C)(OC)C[C@@H](C)C(=O)[C@H](C)[C@@H](O)[C@]1(C)O [CLARITHROMYCIN] | 0.25 (≈ 0.334 µM) | 0.25 (≈ 0.334 µM) | 16 (≈ 21.4 µM) | 125 (≈ 167 µM) | > 250 |  |  | 
4 | CC1OC(=O)/C=C/[C@@H](O)CC[C@H](C)OC(=O)CCC1=O (stereo partly drawn) | 62.5 (≈ 220 µM) | 1 (≈ 3.52 µM) | 125 (≈ 440 µM) | 125 (≈ 440 µM) | 125 (≈ 440 µM) | Non-Toxic | Non-Toxic | Non-Toxic
5 | C[C@@H]1OC(=O)/C=C/[C@@H](O)CC[C@H](C)OC(=O)CC[C@@H]1O | 125 (≈ 437 µM) | 4 (≈ 14 µM) | 125 (≈ 437 µM) | 125 (≈ 437 µM) | 125 (≈ 437 µM) |  |  | 
6 | CO[C@H]1/C=C/O[C@@]2(C)Oc3c(C)c(O)c4c(O)c(c(/C=N/N5CCN(C)CC5)c(O)c4c3C2=O)NC(=O)/C(C)=C\C=C\[C@H](C)[C@H](O)[C@@H](C)[C@@H](O)[C@@H](C)[C@H](OC(C)=O)[C@@H]1C [RIFAMPIN] | 0.25 (≈ 0.304 µM) | 0.25 (≈ 0.304 µM) | 4 (≈ 4.86 µM) | 62.5 (≈ 75.9 µM) | 0.25 (≈ 0.304 µM) |  |  | 
7 | CC1(C)S[C@@H]2[C@H](NC(=O)Cc3ccccc3)C(=O)N2[C@H]1C(=O)O [PENICILLIN G] | 0.25 (≈ 0.748 µM) | 0.25 (≈ 0.748 µM) | 16 (≈ 47.8 µM) | > 250 | 0.5 (≈ 1.5 µM) |  |  | 
8 | CC(=C\C(=O)O)/C=C(\C)C[C@H](C)CCCC[C@H]1OC(=O)[C@@H]1CO [ANTIBIOTIC 1233A] | > 250 | 125 (≈ 385 µM) | > 250 | 125 (≈ 385 µM) | 125 (≈ 385 µM) |  |  | 
